The target of test [1] is T1, Gastrin/cholecystokinin type B receptor (Mus musculus, UniProt P56481).
T1 sequence (P56481 whole entry): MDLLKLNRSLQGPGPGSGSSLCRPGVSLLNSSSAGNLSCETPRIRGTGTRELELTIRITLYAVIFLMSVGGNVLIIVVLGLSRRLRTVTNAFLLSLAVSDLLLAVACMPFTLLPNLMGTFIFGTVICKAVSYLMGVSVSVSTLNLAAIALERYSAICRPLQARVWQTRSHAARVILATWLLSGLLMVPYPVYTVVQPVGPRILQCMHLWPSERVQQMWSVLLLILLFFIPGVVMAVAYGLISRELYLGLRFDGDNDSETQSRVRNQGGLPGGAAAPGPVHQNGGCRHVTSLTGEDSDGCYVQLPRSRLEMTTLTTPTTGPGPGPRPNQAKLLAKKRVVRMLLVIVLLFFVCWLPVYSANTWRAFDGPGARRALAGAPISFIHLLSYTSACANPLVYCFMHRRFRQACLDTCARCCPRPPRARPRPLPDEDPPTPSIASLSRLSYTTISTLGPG
Kind of test: Inhibitory concentration against radioligand [125I]Bolton-Hunter labeled CCK-8 to cholecystokinin type B receptor in the mouse cerebral cortex. It counts as tissue-based.

Test [2] deals with T2, Cholecystokinin receptor type A (Rattus norvegicus, UniProt P30551).
T2 sequence (P30551 whole entry): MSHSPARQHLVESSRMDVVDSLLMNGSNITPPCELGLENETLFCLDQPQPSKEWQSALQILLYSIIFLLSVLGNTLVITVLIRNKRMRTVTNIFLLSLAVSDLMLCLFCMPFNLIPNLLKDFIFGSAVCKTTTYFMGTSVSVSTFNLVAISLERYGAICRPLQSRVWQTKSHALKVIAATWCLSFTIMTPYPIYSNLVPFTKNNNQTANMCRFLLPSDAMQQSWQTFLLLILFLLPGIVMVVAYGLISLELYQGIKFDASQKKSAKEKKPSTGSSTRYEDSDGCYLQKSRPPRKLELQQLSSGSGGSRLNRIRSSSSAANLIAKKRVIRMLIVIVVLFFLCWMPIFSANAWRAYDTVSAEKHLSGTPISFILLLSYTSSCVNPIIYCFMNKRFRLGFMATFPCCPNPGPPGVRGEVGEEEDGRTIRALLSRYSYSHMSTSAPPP
Kind of test: Inhibitory concentration against radioligand [125I]Bolton-Hunter labeled CCK-8 to cholecystokinin type A receptor in the rat pancreas.

Test [3] can be described thus: Ratio of IC50 towards CCK-A receptor and CCK-B receptor.

pIC50: −log10 of the molar value.

The pIC50 is the negative decadic logarithm of the IC50, by convention in mol/L. Low values mean a high IC50, high ones a low IC50.

Take `C[C@](Cc1c[nH]c2ccccc12)(NC(=O)OC1C2CC3CC(C2)CC1C3)C(=O)NC(CC(=O)O)CC(=O)O` (stereo partly specified): the pIC50 is 5.75 in test [1] and 4.80 in test [2]. Moreover, the Ratio in test [3] was determined as 8.9.
In test [2], `C[C@](Cc1c[nH]c2ccccc12)(NC(=O)OC1C2CC3CC(C2)CC1C3)C(=O)N[C@H]1CCCC[C@@H]1O` (stereo partly specified) gave a negative logarithm of the IC50 (pIC50) of 5.71.
Consider `COC(=O)CC(CC(=O)OC)NC(=O)[C@@](C)(Cc1c[nH]c2ccccc12)NC(=O)OC1C2CC3CC(C2)CC1C3` (stereo partly specified), for which the results for the pIC50 in test [1] and in test [2] were 6.67 and 5.93, respectively. The Ratio in test [3] came out at 5.5.
As for `C[C@](Cc1c[nH]c2ccccc12)(NC(=O)OC1C2CC3CC(C2)CC1C3)C(=O)CNC1CCCCC1` (stereo partly specified), the values for the pIC50 in test [1] and in test [2] were 6.50 and 5.48, respectively. The Ratio in test [3] worked out at 10.6.
For `COC[C@H]1CCCN1NC(=O)[C@@](C)(Cc1c[nH]c2ccccc12)NC(=O)OC1C2CC3CC(C2)CC1C3` (stereo partly specified), the values for the pIC50 in test [1] and in test [2] were 8.60 and 5.46, respectively. Besides, the Ratio in test [3] was found to be 1370.
For the compound `C[C@](Cc1c[nH]c2ccccc12)(NC(=O)OC1C2CC3CC(C2)CC1C3)C(=O)NC1(C(=O)O)CCCCC1` (stereo partly specified), the pIC50 is 7.08 in test [1] and 5.82 in test [2]. For the same compound, the Ratio in test [3] came to 18.4.
With `C[C@](Cc1c[nH]c2ccccc12)(NC(=O)OC1C2CC3CC(C2)CC1C3)C(=O)NC1CC2CCC1C2` (stereo in doubt; 21) [listing 1 of 2 here], the values for the pIC50 in test [1] and in test [2] were 7.11 and 5.83, respectively.
For the compound `C[C@](Cc1c[nH]c2ccccc12)(NC(=O)OC1C2CC3CC(C2)CC1C3)C(=O)NC1(CO)CCCC1` (stereo partly specified), the pIC50 in test [1] was 6.57; in test [2] it was 5.85. Further, the Ratio in test [3] stood at 5.3.
As to `C[C@](Cc1c[nH]c2ccccc12)(NC(=O)OC1C2CC3CC(C2)CC1C3)C(=O)NC1CC2CCC1C2` (stereo in doubt; 22) [listing 1 of 2 here], in test [3], the Ratio was 7.5.
Take `C[C@](Cc1c[nH]c2ccccc12)(NC(=O)OC1C2CC3CC(C2)CC1C3)C(=O)NN1CCCCCC1` (stereo partly specified): the pIC50 in test [1] is 7.91; in test [2], 5.52. Further, the Ratio in test [3] was 248.
Turning to `C[C@](Cc1c[nH]c2ccccc12)(NC(=O)OC1C2CC3CC(C2)CC1C3)C(=O)NC1CC2CCC1C2` (stereo in doubt; 21) [listing 2 of 2 here], the Ratio in test [3] came out at 18.6.
As to `C[C@](Cc1c[nH]c2ccccc12)(NC(=O)OC1C2CC3CC(C2)CC1C3)C(=O)NC1CCCCC1C(=O)O` (stereo partly specified), the pIC50 in test [1] is 9.00; in test [2], 6.15. For the same compound, the Ratio in test [3] turned out to be 708.
In the case of `C[C@](Cc1c[nH]c2ccccc12)(NC(=O)OC1C2CC3CC(C2)CC1C3)C(=O)NC1CCCCCC1` (stereo partly specified), the values for the negative logarithm of the IC50 (pIC50) in test [1] and in test [2] were 7.34 and 5.49, respectively. In addition, the Ratio in test [3] worked out at 71.
For `C[C@](Cc1c[nH]c2ccccc12)(NC(=O)OC1C2CC3CC(C2)CC1C3)C(=O)NC(Cc1ccccc1)Cc1ccccc1` (stereo partly specified), the figures for the negative-log IC50 (pIC50) in test [1] and in test [2] were 7.70 and 5.65, respectively. Also, in test [3], the Ratio was 112.
Consider `C[C@](Cc1c[nH]c2ccccc12)(NC(=O)OC1C2CC3CC(C2)CC1C3)C(=O)N[C@@H]1CCCCC[C@H]1O` (stereo partly specified), for which the negative logarithm of the IC50 (pIC50) is 8.33 in test [1] and 5.91 in test [2]. Besides, the Ratio in test [3] stood at 267.
For the compound `C[C@](Cc1c[nH]c2ccccc12)(NC(=O)OC1C2CC3CC(C2)CC1C3)C(=O)NC1CCCCC1` (stereo partly specified), the pIC50 in test [1] was 7.30; in test [2], 5.62. Also, in test [3], the Ratio came out at 48.
In the case of `C[C@](Cc1c[nH]c2ccccc12)(NC(=O)OC1C2CC3CC(C2)CC1C3)C(=O)NC1(CO)CCCCC1` (stereo partly specified), the negative-log IC50 (pIC50) in test [1] was 6.92; in test [2], 5.82. Besides, in test [3], the Ratio worked out at 12.5.
The corresponding values for `CC1CCCCC1NC(=O)[C@@](C)(Cc1c[nH]c2ccccc12)NC(=O)OC1C2CC3CC(C2)CC1C3` (stereo partly specified) are 7.41, 5.56 and 71.4.
In test [2], `C[C@](Cc1c[nH]c2ccccc12)(NC(=O)OC1C2CC3CC(C2)CC1C3)C(=O)NC1CCCCC1O` (stereo partly specified) showed a negative logarithm of the IC50 (pIC50) of 5.86.
With `C[C@](Cc1c[nH]c2ccccc12)(NC(=O)OC1C2CC3CC(C2)CC1C3)C(=O)NC1CCCCC1C#N` (stereo partly specified), the negative logarithm of the IC50 (pIC50) was 8.46 in test [1] and 5.82 in test [2]. In test [3], the Ratio came out at 429.
For `C[C@](Cc1c[nH]c2ccccc12)(NC(=O)OC1C2CC3CC(C2)CC1C3)C(=O)NN1CC2CCC(CC2)C1` (stereo partly specified) the same measures were 8.19, 5.81 and 238.
As for `C[C@](Cc1c[nH]c2ccccc12)(NC(=O)OC1C2CC3CC(C2)CC1C3)C(=O)N[C@H]1CCCCC[C@@H]1O` (stereo partly specified), the values for the pIC50 in test [1] and in test [2] were 7.59 and 5.78, respectively. In addition, the Ratio in test [3] amounted to 65.
As to `C[C@](Cc1c[nH]c2ccccc12)(NC(=O)OC1C2CC3CC(C2)CC1C3)C(=O)NN1CCCC1` (stereo partly specified), the negative logarithm of the IC50 (pIC50) is 6.88 in test [1] and 4.97 in test [2]. Moreover, the Ratio in test [3] was 82.
In the case of `COC[C@@H]1CCCN1NC(=O)[C@@](C)(Cc1c[nH]c2ccccc12)NC(=O)OC1C2CC3CC(C2)CC1C3` (stereo partly specified), the negative logarithm of the IC50 (pIC50) was 7.18 in test [1] and 5.16 in test [2]. Besides, the Ratio in test [3] was determined as 105.
Turning to `C[C@](Cc1c[nH]c2ccccc12)(NC(=O)OC1C2CC3CC(C2)CC1C3)C(=O)NN1CCCCC1` (stereo partly specified), the pIC50 was 7.71 in test [1] and 5.42 in test [2]. In addition, the Ratio in test [3] was determined as 194.
Turning to `COC(=O)C1(NC(=O)[C@@](C)(Cc2c[nH]c3ccccc23)NC(=O)OC2C3CC4CC(C3)CC2C4)CCCCC1` (stereo partly specified), the results for the pIC50 in test [1] and in test [2] were 6.72 and 5.70, respectively. For the same compound, the Ratio in test [3] worked out at 10.4.
As to `C[C@](Cc1c[nH]c2ccccc12)(NC(=O)OC1C2CC3CC(C2)CC1C3)C(=O)NC1CC2CCC1C2` (stereo in doubt; 22) [listing 2 of 2 here], the negative-log IC50 (pIC50) is 6.78 in test [1] and 5.90 in test [2].

(Values after ChEMBL document CHEMBL1131203, “Second generation "peptoid" CCK-B receptor antagonists: identification and development of N-(adamantyloxycarbonyl)-alpha-methyl-(R)-tryptophan derivative (CI-1015) with an improved pharmacokinetic profile” (J Med Chem, 1998).)
